# According to ChEMBL document CHEMBL1134970, “The TosMIC approach to 3-(oxazol-5-yl) indoles: application to the synthesis of indole-based IMPDH inhibitors” (Bioorg Med Chem Lett, 2002):
# Key:
# [1] = test system: CCRF-CEM; test: Inhibitory concentration against T-cell proliferation response in a CEM cell line (BMS-337197,CEM); type: functional, cell-based; settings: Homo sapiens
# [2] = molecular target: Inosine-5'-monophosphate dehydrogenase 2 (Homo sapiens, UniProt P12268); test: Inhibitory concentration against Inosine-5'-monophosphate dehydrogenase 2 was determined
Structure (SMILES),IC50 [1] [nM],IC50 [2] [nM]
Cc1cccc(-c2cnc(Nc3ccc4c(-c5cnco5)c[nH]c4c3)o2)c1,1500,77
Cc1ccccc1-c1cnc(Nc2ccc3c(-c4cnco4)c[nH]c3c2)o1,> 10000,38
Cc1cccc(NC(=O)Nc2ccc3c(-c4cnco4)c[nH]c3c2)c1,> 10000,200
Cc1ccccc1NC(=O)Nc1ccc2c(-c3cnco3)c[nH]c2c1,9700,35
Cc1cccc(NC(=O)Nc2ccc3c(-c4cnco4)cn(C)c3c2)c1,,> 5000
CN(C(=O)CN1CCOCC1)c1ccccc1-c1cnc(Nc2ccc3c(-c4cnco4)c[nH]c3c2)o1,3000,35
c1ccc(-c2cnc(Nc3ccc4c(-c5cnco5)c[nH]c4c3)o2)cc1,> 10000,93
COc1cc(NC(=O)Nc2cccc(C)c2)ccc1-c1cnco1,1000,19
Cc1ccc(NC(=O)Nc2ccc3c(-c4cnco4)cn(C)c3c2)cc1,,> 5000
Cc1ccc(-c2cnc(Nc3ccc4c(-c5cnco5)c[nH]c4c3)o2)cc1,> 10000,205
CC(=O)OCC(=O)N(C)c1ccccc1-c1cnc(Nc2ccc3c(-c4cnco4)c[nH]c3c2)o1,1000,7
COc1cc(Nc2ncc(-c3ccccc3N(C)C(=O)CN3CCOCC3)o2)ccc1-c1cnco1,590,16
Cc1ccc(NC(=O)Nc2ccc3c(-c4cnco4)c[nH]c3c2)cc1,> 10000,11
O=C(Nc1ccccc1)Nc1ccc2c(-c3cnco3)c[nH]c2c1,> 10000,40
